For one data set, the target named is T1, JAK3 (Homo sapiens, UniProt P52333).
T1 construct: purchased Reaction Biology Corp, Malvern, PA (contract testing)
T1 sequence (P52333 1-1124): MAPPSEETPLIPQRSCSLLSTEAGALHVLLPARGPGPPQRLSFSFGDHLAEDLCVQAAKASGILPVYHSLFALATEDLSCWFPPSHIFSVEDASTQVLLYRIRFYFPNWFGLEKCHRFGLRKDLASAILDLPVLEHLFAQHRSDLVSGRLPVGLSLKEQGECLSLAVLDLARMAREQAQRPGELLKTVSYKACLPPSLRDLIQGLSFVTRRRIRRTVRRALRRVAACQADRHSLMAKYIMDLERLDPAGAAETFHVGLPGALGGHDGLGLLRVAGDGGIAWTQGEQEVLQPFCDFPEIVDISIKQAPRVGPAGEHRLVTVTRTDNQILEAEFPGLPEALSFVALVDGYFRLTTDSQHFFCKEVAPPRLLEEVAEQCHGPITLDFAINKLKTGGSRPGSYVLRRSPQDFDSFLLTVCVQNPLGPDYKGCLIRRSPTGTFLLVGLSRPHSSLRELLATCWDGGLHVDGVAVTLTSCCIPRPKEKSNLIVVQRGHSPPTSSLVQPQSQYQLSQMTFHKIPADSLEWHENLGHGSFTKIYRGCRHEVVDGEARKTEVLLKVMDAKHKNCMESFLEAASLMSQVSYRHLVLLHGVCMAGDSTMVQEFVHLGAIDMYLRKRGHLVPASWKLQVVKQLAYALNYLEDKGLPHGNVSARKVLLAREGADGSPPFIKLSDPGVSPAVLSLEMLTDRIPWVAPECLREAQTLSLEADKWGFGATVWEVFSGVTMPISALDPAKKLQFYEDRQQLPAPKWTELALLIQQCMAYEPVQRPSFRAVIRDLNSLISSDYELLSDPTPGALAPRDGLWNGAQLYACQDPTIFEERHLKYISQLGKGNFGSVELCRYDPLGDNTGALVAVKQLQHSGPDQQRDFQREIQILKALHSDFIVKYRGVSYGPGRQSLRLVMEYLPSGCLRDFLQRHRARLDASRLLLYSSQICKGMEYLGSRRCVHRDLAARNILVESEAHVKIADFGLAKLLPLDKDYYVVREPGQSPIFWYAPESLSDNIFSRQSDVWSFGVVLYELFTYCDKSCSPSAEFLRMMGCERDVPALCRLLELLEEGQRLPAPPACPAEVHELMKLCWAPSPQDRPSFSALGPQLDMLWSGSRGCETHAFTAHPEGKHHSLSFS
The data set is described as follows: JAK3 biochemical test (33P-ATP filter binding, Reaction Biology). The conditions noted are these: read-out: Inhibition of JAK3 (IC50). The procedure: The tests were conducted by Reaction Biology Corp, Malvern, PA (Anastassiadis et al. Nat Biotechnol. 2011; 29(11):1039-45). The step is briefly described as follows, using the basic reaction buffer: 20 mM Hepes (pH 7.5), 10 mM MgCl2, 1 mM EGTA, 0.02% Brij35, 0.02 mg/ml BSA, 0.1 mM Na3VO4, 2 mM DTT and 1% DMSO. The required cofactor was added to each kinase reaction respectively. Each reaction was performed according to the following reaction steps: 1) Preparing the designated substrate in the newly prepared basic reaction buffer; 2) Transferring the required cofactor to the above matrix solution; 3) Transferring the designated kinase to the substrate solution and mixing well slightly; 4) Transferring a compound of Formula (I) in DMSO to the kinase reaction mixture with Acoustic technique (Echo550; nanoliter range), culturing for 20 minutes at room temperature; 5) Introducing ^33P-ATP (specific activity: 10 μCi/μl) to the reaction mixture to trigger a reaction; 6) Culturing at room temperature and conducting a kinase reaction for 2 hours; 7) Plotting the reaction on P81 ion exchange paper; and 8) Testing the kinase activity with a filter binding assay. The results shown in Table 1 indicate that compounds of Formulae (I)-(III) are potent and selective TYK2/JAK1 inhibitors.

A further data set addresses T2, TYK2 (Homo sapiens, UniProt P29597).
T2 construct: purchased Reaction Biology Corp, Malvern, PA (contract testing)
The data set is described as follows: TYK2 cellular ELISA assay using NK92 cells (IL-12 and IL-18 stimulated IFNγ excretion). In kind it is cell-based. The conditions noted are these: IL-12 2 ng/ml, IL-18 5 ng/ml, 24 hours. The procedure: This testing was performed to test cellular TYK2 activity using IL-12 and IL-18 stimulated IFNγ excretion assay in NK92 cells. The testing was performed according to the following procedure: 1) Replace NK92 cell media containing IL-2 with media not containing IL-2, maintain overnight; 2) Plate NK92 cells to 96-well plate at density of ˜150,000 cell/well; 3) Add different concentrations of test article to wells, maintain in incubator at 37° C. and 5% CO2 for 1 hour; 4) Add IL-12 (final concentration: 2 ng/ml) and IL-18 (final concentration: 5 ng/ml) to stimulate for 24 hours in the above incubator; 5) After 24 hours, centrifuge at 2000 rpm for 5 min, take the supernatant and analyze according to instructions of the ELISA kit. In this assay, compounds of Formulae (II) and (III) had IC50<100 nM.

For another data set, the system named is HT22 cells. The data set is described as follows: Viability of HT22 cells with LPS but without BV2 microglia. Type of data set: cell-based. The conditions noted are these: 1.7 μM, presence or absence of LPS (200 ng/ml, 96 h). The procedure: This testing was performed to test the ability of compounds to alleviate the injury of HT22 cells induced by LPS activated BV2 cells. The testing was performed according to the following procedure: 1) Microglia BV2 cells were co-cultured on transwell inserts with HT22hippocampal neurons. BV2 cells were stimulated with LPS (200 ng/ml) for 96 h after treatment with a compound of Formula (II) at 1.7 μM. 2) HT22 cells were pre-treated with a compound of Formula (II) at 1.7 μM for 30 min and subsequently stimulated with LPS (200 ng/ml) for 96 h. 3) BV2 cells were treated using LPS. IL-6, TNF and MCP-1 productions were measured in cell supernatants using CBA assay.
The protective effects of a compound of Formula (II) on microglial activation-induced neuronal death were evaluated in a BV2 microglia/HT22 neuron co-culture. Following stimulation of BV2 microglia with LPS (200 ng/mL), there was a marked reduction in the viability of co-cultured HT22 cells.

The structures appear in SMILES notation.

T2 sequence (P29597 whole entry): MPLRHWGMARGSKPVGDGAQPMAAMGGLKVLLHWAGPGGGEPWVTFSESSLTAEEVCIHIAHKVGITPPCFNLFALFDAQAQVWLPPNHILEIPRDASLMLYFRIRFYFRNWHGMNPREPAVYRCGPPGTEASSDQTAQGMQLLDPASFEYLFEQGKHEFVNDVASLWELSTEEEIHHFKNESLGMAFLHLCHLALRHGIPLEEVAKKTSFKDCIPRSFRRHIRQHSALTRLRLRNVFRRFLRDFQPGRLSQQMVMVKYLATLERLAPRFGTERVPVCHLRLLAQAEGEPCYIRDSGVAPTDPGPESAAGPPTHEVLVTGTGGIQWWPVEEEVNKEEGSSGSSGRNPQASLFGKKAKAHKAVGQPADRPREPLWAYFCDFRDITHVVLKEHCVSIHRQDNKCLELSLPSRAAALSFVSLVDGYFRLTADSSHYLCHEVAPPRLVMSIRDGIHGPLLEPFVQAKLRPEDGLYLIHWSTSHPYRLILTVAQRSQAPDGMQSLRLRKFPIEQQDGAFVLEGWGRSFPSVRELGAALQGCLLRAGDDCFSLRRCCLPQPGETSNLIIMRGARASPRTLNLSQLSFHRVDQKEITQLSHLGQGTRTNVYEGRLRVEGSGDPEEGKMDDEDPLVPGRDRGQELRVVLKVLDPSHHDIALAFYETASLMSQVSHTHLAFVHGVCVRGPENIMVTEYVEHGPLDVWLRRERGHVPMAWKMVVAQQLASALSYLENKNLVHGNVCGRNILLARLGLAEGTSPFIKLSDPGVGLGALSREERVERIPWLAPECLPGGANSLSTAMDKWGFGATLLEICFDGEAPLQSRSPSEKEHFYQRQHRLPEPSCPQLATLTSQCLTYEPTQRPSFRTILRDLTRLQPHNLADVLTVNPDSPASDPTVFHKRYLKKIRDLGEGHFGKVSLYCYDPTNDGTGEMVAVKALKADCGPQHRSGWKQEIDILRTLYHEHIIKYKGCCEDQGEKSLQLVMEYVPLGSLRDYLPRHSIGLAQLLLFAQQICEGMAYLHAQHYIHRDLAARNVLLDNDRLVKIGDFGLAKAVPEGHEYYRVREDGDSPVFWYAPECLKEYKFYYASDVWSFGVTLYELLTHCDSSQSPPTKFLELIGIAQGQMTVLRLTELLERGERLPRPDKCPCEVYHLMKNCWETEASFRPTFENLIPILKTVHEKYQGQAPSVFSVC

On to `Cc1nc2cnc3ccoc3c2n1[C@H]1CC[C@H](CC#N)OC1` [Formula (II)], for which the IC50 on JAK3 is over 100 nM; at TYK2, under 100 nM. In the data set with HT22 cells, the “Viability of HT22 cells” value is reported as “did not affect the viability”.

Values taken from patent publication US20250032465A1, “METHODS OF TREATING CNS DISORDERS” (HANGZHOU HIGHLIGHTLL PHARMACEUTICAL CO., LTD, priority 2021, published 2025).
